Tests used:
HT29 = test: MTT cell growth inhibition: HT29; assay type: cell-based; conditions: Homo sapiens, HT-29, read-out: GI50 = Concentration (µM) that inhibits cell growth by 50%; HT29 colon carcinoma; dose response
BE2-C = test: MTT cell growth inhibition: BE2-C; assay type: cell-based; conditions: Homo sapiens, BE(2)-C, read-out: GI50 = Concentration (µM) that inhibits cell growth by 50%; BE2-C neuroblastoma; dose response
Du145 = test: MTT cell growth inhibition: Du145; assay type: cell-based; conditions: Homo sapiens, DU-145, read-out: GI50 = Concentration (µM) that inhibits cell growth by 50%; Du145 prostate carcinoma; dose response
panel of 15 glycosidases = test: Glycosidase inhibition, laboratory 1: whole panel; assay type: biochemical; conditions: laboratory 1, methanol; range or words over enzymes
Source text: The enzymes α-glucosidase (from yeast), β-glucosidases (from almond and bovine liver), α-galactosidase (from coffee beans), β-galactosidase (from bovine liver), α-mannosidase (from Jack bean), β-mannosidase (from snail), α-L-rhamnosidase (from Penicillium decumbens), α-L-fucosidase (from bovine kidney), trehalase (from porcine kidney), β-glucuronidases (from E. coli and bovine liver), amyloglucosidase (from A. niger), para-nitrophenyl glycosides, and various disaccharides were purchased from Sigma-Aldrich Co (St Louis, MO, USA).
Brush border membranes were prepared from the rat small intestine according to the method of Kessler et al. and were assayed at pH 6.8 for rat intestinal maltase using maltose. For rat intestinal maltase, porcine kidney trehalase, and A. niger amyloglucosidase activities, the reaction mixture contained 25 mM maltose and the appropriate amount of enzyme, and the incubations were performed for 10–30 min at 37 °C. The reaction was stopped by heating at 100 °C for 3 min. […] The absorbance at 505 nm was measured to determine the amount of the released D-glucose. Other glycosidase activities were determined using an appropriate para-nitrophenyl glycoside as substrate at the optimum pH of each enzyme. […] The released para-nitrophenol was measured spectrometrically at 400 nm. […]

| SMILES | GI50 (HT29) | GI50 (BE2-C) | GI50 (Du145) | percent inhibition across the glycosidase panel (panel of 15 glycosidases) |
| --- | --- | --- | --- | --- |
| CC1(C)OB(c2cccc(CN3C(=O)c4c(Cl)c(Cl)c(Cl)c(Cl)c4C3=O)c2)OC1(C)C [meta 3, 4,5,6,7-Tetrachloro-2-(3-(4,4,5,5-tetramethyl-1,3,2-dioxaborolan-2-yl)benzyl)isoindoline-1,3-dione] | 26 ± 2.6 µM | 29 ± 0.58 µM | 30 ± 0.41 µM | – |
| CC1(C)OB(c2ccccc2NC(=O)c2cc(Cl)c(Cl)c(Cl)c2Cl)OC1(C)C [ortho 5, 2,3,4,5-Tetrachloro-N-(2-(4,4,5,5-tetramethyl-1,3,2-dioxaborolan-2-yl)phenyl)benzamide] | 14 ± 1.7 µM | 16 ± 0.58 µM | 16 ± 1.9 µM | no significant inhibition |
| CC1(C)OB(c2ccc(CN3C(=O)c4c(Cl)c(Cl)c(Cl)c(Cl)c4C3=O)cc2)OC1(C)C [para 3, 4,5,6,7-Tetrachloro-2-(4-(4,4,5,5-tetramethyl-1,3,2-dioxaborolan-2-yl)benzyl)isoindoline-1,3-dione] | 5.3 ± 1.3 µM | 8.1 ± 1.7 µM | 5.5 ± 0.23 µM | – |

Reference: publication PMC9182199, “Borylated 2,3,4,5-Tetrachlorophthalimide and Their 2,3,4,5-Tetrachlorobenzamide Analogues: Synthesis, Their Glycosidase Inhibition and Anticancer Properties in View to Boron Neutron Capture Therapy” (Molecules, 2022)
